According to article PMC6277198, “Molecular basis for activation of lecithin:cholesterol acyltransferase by a compound that increases HDL cholesterol” (eLife, 2018):
“Also recorded” adds a separate entry of the source.

Molecular target: T1, WT LCAT (Homo sapiens, UniProt P04180)
T1 sequence (P04180 25-440): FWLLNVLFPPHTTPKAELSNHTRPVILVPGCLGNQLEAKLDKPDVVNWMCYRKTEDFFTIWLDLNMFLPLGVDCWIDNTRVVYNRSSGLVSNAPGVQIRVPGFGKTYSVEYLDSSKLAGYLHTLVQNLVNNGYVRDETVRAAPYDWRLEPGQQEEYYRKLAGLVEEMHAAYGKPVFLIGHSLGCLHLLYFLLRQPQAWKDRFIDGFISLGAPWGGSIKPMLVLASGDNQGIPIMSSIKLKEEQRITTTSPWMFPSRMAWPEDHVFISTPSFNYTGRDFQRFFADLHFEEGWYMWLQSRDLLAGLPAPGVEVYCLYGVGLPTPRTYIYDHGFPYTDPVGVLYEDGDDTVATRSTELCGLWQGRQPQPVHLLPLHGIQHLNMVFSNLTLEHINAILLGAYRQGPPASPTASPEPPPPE
Assay: Bio-layer interferometry, LCAT binding to ApoA-I HDLs
Details: 10 μM compound 1
Description: A FortéBio Octet RED system was used to measure the binding of LCAT to ApoA-I HDLs. HDLs were prepared with 1,2-dipalmitoyl-sn-glycero-3-phosphocholine (DPPC), 1-palmitoyl-2-oleoyl-sn-glycero-3-phosphocholine (POPC), and 16:0 biotinyl Cap PE in a ratio of 49.5:49.5:1 ([Manthei et al., 2017]). HDLs were diluted 1/20 in assay buffer (1X PBS pH 7.4, 1 mM EDTA, 60 µM fatty acid free bovine serum albumin) and then immobilized on streptavidin tips for 600 s, followed by a wash in assay buffer for 600 s to remove unbound HDLs. The tips were then moved to buffer containing DMSO or compound 1 and allowed to equilibrate for 120 s before a baseline was established for 30 s. […] In order to determine Kd values, the kobs (from association) were determined at each concentration for the fast phase and then plotted against LCAT concentration. The slope of the line was evaluated as kon using the equation kobs = kon[LCAT]+koff and the resultant Kd = koff/kon. For statistical analysis, the kon, koff, and Kd for each replicate was determined individually and the results were compared to WT using a one-way analysis of variance followed by Tukey’s multiple comparisons post-test in GraphPad Prism.

**Q.** How did the “Effect on LCAT binding to HDL (kon, koff, Kd) in BLI” value turn out when N#Cc1cnc(N2CCC(c3n[nH]c4c3C(O)(C(F)(F)F)CC(=O)N4)CC2)cc1C(F)(F)F (stereo not shown) [compound 1, 6-(4-(4-Hydroxy-6-oxo-4-(trifluoromethyl)−4,5,6,7-tetrahydro-1H-pyrazolo[3,4-b]pyridin-3-yl)piperidin-1-yl)−4-(trifluoromethyl)nicotinonitrile] was run?
**A.** does not affect; also recorded: no change
